Measurements from article PMC5504357, “Antifungal Potential of Copper(II), Manganese(II) and Silver(I) 1,10-Phenanthroline Chelates Against Multidrug-Resistant Fungal Species Forming the Candida haemulonii Complex: Impact on the Planktonic and Biofilm Lifestyles” (Frontiers in Microbiology, 2017).
≈ marks a conversion by molar mass, not a printed value. Read-outs that look alike come from different tables or passages of the source.

Columns and labels:
[1] = Solubility in solvents; format: physicochemical; details: solvents as named
Procedure: {[Cu(3,6,9-tdda)(phen)2].3H2O.EtOH}n (7). Step (i): Copper(II) acetate hydrate (1.50 g; 7.51 mmol) was dissolved in ethanol (50 mL) and the solution was added to an ethanolic solution (25 mL) of 3,6,9-trioxaundecanedioic acid (3,6,9-tddaH2) (2.84 g; […]). The light-green suspension was refluxed for 1 h, and after cooling to room temperature the light-green solid, [Cu(3,6,9-tdda)].H2O, was filtered off, washed with cold ethanol and air dried. Yield: 1.88 g (82.97%). % Calculated: C: 31.84, H: 4.68. % Found: C: 32.20, H: 4.60. […] Step (ii): [Cu(3,6,9-tdda)].H2O (1.00 g; 3.31 mmol) and phen (2.39 g; 13.26 mmol) were dissolved together in ethanol (50 mL) and the resulting dark-green mixture was refluxed for 2 h. The suspension was cooled and the green solid, {[Cu(3,6,9-tdda)(phen)2]3H2O.EtOH}n(7), was filtered off, washed with cold ethanol and air dried. Yield: 1.63 g (66.09%). % Calculated: C: 54.87, H: 5.42, N: 7.53. % Found: C: 54.65, H: 5.63, N: 7.39.
[Ag2(3,6,9-tdda)(phen)4].EtOH (16). Step (i): Silver(I) acetate (3.00 g; 17.97 mmol) was dissolved in ethanol (30 mL) and the solution was added to an ethanolic solution (25 mL) of 3,6,9-trioxaundecanedioic acid (3,6,9-tddaH2) (2.84 g; 8.95 mmol) and the orange-brown suspension refluxed for 3 h. […] Green [Ag2(3,6,9-tdda)(phen)4].EtOH (16) precipitated and was filtered off, washed with cold ethanol and air dried. Yield: 0.83 g (65.10%). % Calculated: C: 57.92, H: 4.19, N: 9.32. % Found: C: 57.75, H: […], N: 9.02. IR (KBr) νmax: 3380, 3046, 2905, 1978, 1804, 1618, 1585, 1509, 1421, 1322, 1263, 1215, 1121, 1077, 1018, 932, 890, 838, 726, 621, 465, 413 cm^−1. ^1H NMR (500 MHz, DMSO-d6, 313 K, TMS) δ = 9.12(8H, s), 8.63 (8H, d), 8.08 (8H, s), 7.91 (8H, dd), 3.74 (4H, s), 3.57 (8H, dd). ^13C NMR (125 MHz, DMSO-d6, 313 K, TMS) δ = 173.41, 151.28, 143.57, 138.03, 129.24, 127.37, 124.74, 71.44, 70.42, 69.74.

[2] = test system: Candida duobushaemulonii; assay: Planktonic growth, broth microdilution (CLSI M27-A3), MIC; format: cell-based
Outline: (§1)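 Three clinical isolates per species (nail, blood, urine origin), grown in Sabouraud-dextrose 48 h at 37°C, were tested by CLSI M27-A3 broth microdilution in RPMI 1640 over 0.0625-32 mg/L. After 48 h at 37°C, MIC was the lowest concentration with no visible growth; the across-isolate value is a geometric mean MIC.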

[3] = test system: Candida haemulonii var. vulnera; assay: as above; format: cell-based
Outline: as §1

[4] = test system: Candida haemulonii; assay: as above; format: cell-based
Outline: as §1

[5] = test system: C. haemulonii complex; assay: Planktonic growth, overall across all nine isolates; format: cell-based, Candida haemulonii complex; details: for MIC: read-out: Overall GM-MIC; for effect on planktonic fungal growth/viability (in words): nine clinical isolates, 0.0625-32 mg/L
Outline: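 Visual read-out: MIC taken as the lowest concentration showing no growth after 48 h incubation at 37°C in RPMI 1640. Compounds were serially diluted from DMSO solutions to 0.0625-32 mg/L, with matching DMSO controls, against three clinical isolates of each species.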

[6] = Mammalian cell toxicity (MTT assay) and selectivity index; format: cell-based, Human; details: human, A549 cells (human lung adenocarcinoma); MTT, 48 h incubation
Outline: (§2)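 A549 cells were exposed to compounds (0.0313–512 μg/mL) in DMEM for 48 h at 37 °C, 5% CO2. Viability was measured by MTT (3 h, dark), with formazan dissolved in DMSO and read at 450 nm. CC50 was derived, and SI calculated as A549 CC50 divided by C. haemulonii complex GM-MIC.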

[7] = test system: Candida duobushaemulonii; assay: Biofilm-growing cells, XTT assay, bMIC; format: cell-based; details: for GM-bMIC: geometric mean, C. duobushaemulonii isolates; for bMIC: mature biofilm, 48 h, 50% inhibition of metabolic activity
Outline: (§3)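 Yeasts (10^6 cells) form biofilms over 48 h at 37°C in Sabouraud-dextrose broth. Non-adherent cells are washed off with PBS, compounds are added at the planktonic-assay concentrations for a further 48 h, and XTT reduction gives metabolic activity, with 50% inhibition defining bMIC.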

[8] = test system: Candida haemulonii var. vulnera; assay: Biofilm-growing cells, XTT assay, bMIC; format: cell-based; details: for GM-bMIC: geometric mean, C. haemulonii var. vulnera isolates; for bMIC: mature biofilm, 48 h, 50% inhibition of metabolic activity
Outline: as §3

[9] = test system: Candida haemulonii; assay: Biofilm-growing cells, XTT assay, bMIC; format: cell-based; details: for GM-bMIC: geometric mean, C. haemulonii isolates, values marked * do not include LIP Ch4 (>512); for bMIC: mature biofilm, 48 h, 50% inhibition of metabolic activity
Outline: as §3

[10] = test system: Candida haemulonii complex; assay: Biofilm-growing cells, overall across isolates; format: cell-based; details: geometric mean across strains, values marked * do not include LIP Ch4 (>512)
Outline: as §3

[11] = test system: A549 cells; assay: Mammalian cell toxicity (MTT assay) and selectivity index; format: cell-based, Human; details: MTT, 48 h incubation
Outline: as §2

[12] = Candidozyma duobushaemuli, 48 h, isolate LIP Ch1, planktonic, 48 h, 37°C, read-out: MIC
[13] = Candidozyma duobushaemuli, 48 h, isolate LIP Ch6, planktonic, 48 h, 37°C, read-out: MIC
[14] = Candidozyma duobushaemuli, 48 h, isolate LIP Ch8, planktonic, 48 h, 37°C, read-out: MIC
[15] = Candidozyma duobushaemuli, geometric mean of three C. duobushaemulonii isolates, read-out: GM-MIC
[16] = Candidozyma haemuli, 48 h, isolate LIP Ch5, planktonic, 48 h, 37°C, read-out: MIC
[17] = Candidozyma haemuli, 48 h, isolate LIP Ch9, planktonic, 48 h, 37°C, read-out: MIC
[18] = Candidozyma haemuli, 48 h, isolate LIP Ch11, planktonic, 48 h, 37°C, read-out: MIC
[19] = Candidozyma haemuli, geometric mean of three C. haemulonii var. vulnera isolates, read-out: GM-MIC
[20] = Candidozyma haemuli, 48 h, isolate LIP Ch4, planktonic, 48 h, 37°C, read-out: MIC
[21] = Candidozyma haemuli, 48 h, isolate LIP Ch7, planktonic, 48 h, 37°C, read-out: MIC
[22] = Candidozyma haemuli, 48 h, isolate LIP Ch12, planktonic, 48 h, 37°C, read-out: MIC
[23] = Candidozyma haemuli, geometric mean of three C. haemulonii isolates, read-out: GM-MIC
[24] = Candidozyma haemuli, geometric mean across all nine strains, in μM
[25] = Candidozyma haemuli, geometric mean across all nine strains

| Molecule | Solubility [1] | MIC [2, 12] | MIC [2, 13] | MIC [2, 14] | MIC [2, 15] | MIC [3, 16] | MIC [3, 17] | GM-bMIC [7] | bMIC ([7]; isolate LIP Ch1) | bMIC ([7]; isolate LIP Ch6) | bMIC ([7]; isolate LIP Ch8) | GM-bMIC [8] | bMIC ([8]; isolate LIP Ch5) | bMIC ([8]; isolate LIP Ch9) | bMIC ([8]; isolate LIP Ch13) | GM-bMIC [9] | bMIC ([9]; isolate LIP Ch4) | bMIC ([9]; isolate LIP Ch7) | bMIC ([9]; isolate LIP Ch14) | Overall GM-bMIC [10] | further results |
| --- | --- | --- | --- | --- | --- | --- | --- | --- | --- | --- | --- | --- | --- | --- | --- | --- | --- | --- | --- | --- | --- |
| O.O.O=C([O-])COCCOCCOCC(=O)[O-].[Ag+].[Ag+] [[Ag2(3,6,9-tdda].2H2O] | soluble in hot H2O and hot DMSO | – | – | – | – | – | – | – | – | – | – | – | – | – | – | – | – | – | – | – | – |
| O.O=C([O-])COCCOCCOCC(=O)[O-].[Cu+2] [[Cu(3,6,9-tdda)].H2O] | soluble in H2O, MeOH, EtOH and insoluble in CHCl3, ethyl acetate and acetone | – | – | – | – | – | – | – | – | – | – | – | – | – | – | – | – | – | – | – | – |
| c1cnc2c(c1)ccc1cccnc12 [phen, 1,10-phenanthroline] | – | 1 µg/mL (≈ 5.55 µM) | 1 µg/mL (≈ 5.55 µM) | 1 µg/mL (≈ 5.55 µM) | 1 µg/mL (≈ 5.55 µM) | 1 µg/mL (≈ 5.55 µM) | 1 µg/mL (≈ 5.55 µM) | 1 mg/L | 1 mg/L | 1 mg/L | 1 mg/L | 10.08 mg/L | 4 mg/L | 32 mg/L | 8 mg/L | 12.70 mg/L | 512 mg/L | 2 mg/L | 2 mg/L | 5.04 mg/L | MIC [3, 18]: 0.5 µg/mL (≈ 2.77 µM); MIC [3, 19]: 0.79 µg/mL (≈ 4.38 µM); MIC [4, 20]: 1 µg/mL (≈ 5.55 µM); MIC [4, 21]: 1 µg/mL (≈ 5.55 µM); MIC [4, 22]: 1 µg/mL (≈ 5.55 µM); MIC [4, 23]: 1 µg/mL (≈ 5.55 µM); MIC [5, 24]: 5.16 µM; MIC [5, 25]: 0.93 µg/mL; effect on planktonic fungal growth/viability (in words) [5]: appreciably deterred fungal growth; activity of metal-free phen relative to phendione ([5]; planktonic, more active than phendione): ~ 2 fold; CC50 at 48 h [6]: 4.3 µg/mL (≈ 23.9 µM); Overall GM-bMIC ([10]; in μM): 27.96 µM |
| O=C1C(=O)c2cccnc2-c2ncccc21 [phendione, 1,10-phenanthroline-5,6-dione, reference compound] | – | 2 µg/mL (≈ 9.52 µM) | 4 µg/mL (≈ 19 µM) | 2 µg/mL (≈ 9.52 µM) | 2.52 µg/mL (≈ 12 µM) | 2 µg/mL (≈ 9.52 µM) | 2 µg/mL (≈ 9.52 µM) | 12.70 mg/L | 4 mg/L | 32 mg/L | 16 mg/L | 20.16 mg/L | 16 mg/L | 16 mg/L | 32 mg/L | 11.31^* mg/L | >512 mg/L | 8 mg/L | 16 mg/L | 14.67 mg/L | MIC [3, 18]: 2 µg/mL (≈ 9.52 µM); MIC [3, 19]: 2 µg/mL (≈ 9.52 µM); MIC [4, 20]: 2 µg/mL (≈ 9.52 µM); MIC [4, 21]: 2 µg/mL (≈ 9.52 µM); MIC [4, 22]: 2 µg/mL (≈ 9.52 µM); MIC [4, 23]: 2 µg/mL (≈ 9.52 µM); MIC [5, 24]: 10.3 µM; MIC [5, 25]: 2.16 µg/mL; effect on planktonic fungal growth/viability (in words) [5]: appreciably deterred fungal growth; CC50 at 48 h [6]: 2.02 µg/mL (≈ 9.61 µM); Overall GM-bMIC ([10]; in μM): 76 µM |
| {[Mn(3,6,9-tdda)(phen)2].3H2O.EtOH}n [compound 14] | – | – | – | – | – | – | – | 10.08 mg/L | 16 mg/L | 4 mg/L | 16 mg/L | 8 mg/L | 16 mg/L | 4 mg/L | 8 mg/L | 20.16 mg/L | 512 mg/L | 4 mg/L | 4 mg/L | 11.76 mg/L | GM-MIC ([2]; geometric mean of three C. duobushaemulonii isolates): 3.17 µg/mL; MIC ([2]; isolate LIP Ch1, planktonic, 48 h, 37°C): 4 µg/mL; MIC ([2]; isolate LIP Ch6, planktonic, 48 h, 37°C): 4 µg/mL; MIC ([2]; isolate LIP Ch8, planktonic, 48 h, 37°C): 2 µg/mL; GM-MIC ([3]; geometric mean of three C. haemulonii var. vulnera isolates): 2 µg/mL; MIC ([3]; isolate LIP Ch5, planktonic, 48 h, 37°C): 2 µg/mL; MIC ([3]; isolate LIP Ch9, planktonic, 48 h, 37°C): 2 µg/mL; MIC ([3]; isolate LIP Ch11, planktonic, 48 h, 37°C): 2 µg/mL; GM-MIC ([4]; geometric mean of three C. haemulonii isolates): 2 µg/mL; MIC ([4]; isolate LIP Ch4, planktonic, 48 h, 37°C): 2 µg/mL; MIC ([4]; isolate LIP Ch7, planktonic, 48 h, 37°C): 2 µg/mL; MIC ([4]; isolate LIP Ch12, planktonic, 48 h, 37°C): 2 µg/mL; Overall GM-MIC ([5]; geometric mean across all nine strains): 2.33 µg/mL; MIC ([5]; geometric mean across all nine strains, in μM): 3.15 µM; A549 (CC50) [11]: 261.67 µg/mL |
